The structures appear in SMILES notation.

For series [1], the system named is TUNEL positive apoptotic cells. In words: TUNEL assay on orthotopic lung tumor sections. It counts as in vivo, athymic Nu/nu mice. Here is the method:
Terminal deoxynucleotidyl transferase-mediated dUTP nick end labeling (TUNEL) assay was used to study the DNA fragmentation or apoptosis detection. TUNEL assay was performed on 4–5 µm thick sections as per the kit manual. Formalin-fixed tumor tissues were embedded in paraffin and sectioned ([…]). DeadEndTM Colorimetric Apoptosis Detection System (Promega, Madison, WI) allows the recognition of apoptotic nuclei in paraffin-embedded tissue sections fixed on slides according to the manufacturer's protocol. Briefly, the equilibration buffer was added to slides and incubated for 10 minutes followed by 10-minute incubation in […] proteinase K solution. The sections were washed in PBS and incubated with TdT enzyme at 37°C for 1 h in a humidified chamber for incorporation of biotinylated nucleotides at the 3-OH ends of DNA. The slides were incubated in horseradish peroxidase-labeled streptavidin to bind the biotinylated nucleotides followed by detection with stable chromagen DAB. The images on the slides were visualized with an Olympus BX40 light microscope equipped with a computer-controlled digital camera (DP71, Olympus Center Valley, PA, USA). Three slides per group were stained and apoptotic cells were identified by dark brown […] staining.

A short description of series [2]: In vitro Caco-2 permeability study. Particulars: human, Caco-2, pH 5.8.
Description: Caco-2 cells (passage #29) were cultured at 37°C with culture medium replaced every 2 days in an atmosphere of 5% CO2 and 95% relative humidity. Cells were harvested upon reaching approximately 80-90% confluence with 0.25% trypsin–EDTA. Cells were grown on 1.12 cm^2 0.4 μm pore polycarbonate membrane inserts in 12 mm × 12 transwell permeable support plates (Corning, NY, USA). Caco-2 cells were seeded onto membranes at 50,000 cells/well. Individual wells received 1.5 mL of culture medium at the bottom and 0.5 mL of medium was added to the top of inserts which was changed on alternate days. Confluent monolayers were used for permeability studies at ~21 days post seeding. Transepithelial electrical resistance (TEER) of Caco-2 monolayers was measured prior to all experiments using the EVOM volt-ohm-meter (Millicell-ERS; Millipore, USA) to ensure monolayer integrity. The TEER (Ω·cm^2) values of the cell monolayers were determined by the resistance (Ω) × effective membrane area (cm^2). TEER values were measured across each cell monolayer prior to beginning the experimentation and at the last sample collection time point. Transport studies were initiated by removing culture medium from the apical (A) and basolateral (B) sides of the cell monolayer. […] The effective permeability (Peff) (cm/s) was determined using Eq. 1: […]

As to `COc1ccc2cc3[n+](cc2c1OC)CCc1cc2c(cc1-3)OCO2.[Cl-]` [BBR free drug, 5,6-dihydro-9,10-dimethoxy-benzo[g]-1,3-benzodioxolo[5,6-a]quinolizinium, chloride], in series [1], the “increase in TUNEL positive apoptotic cells compared to control tumors” value is 2.74 fold. Also, the Papp A→B – broadly, the apparent permeability from the apical to the basolateral side of a cell layer – at 120 min, 100 µM in series [2] was roughly 0.29 ×10⁻⁶ cm/s.

The values above are taken from paper PMC3948684, “Approaches to Improve the Oral Bioavailability and Effects of Novel Anticancer Drugs Berberine and Betulinic Acid” (PLoS ONE, 2014).
